# Data from US10709783B2, “Neutron capture therapy system for eliminating amyloid β-protein” (NEUBORON MEDTECH LTD., priority 2015, dated 2020).
# Read-outs that look alike come from different tables or passages of the source.
# What was measured:
# [1] = Micro-PET scan of brain uptake of ^11C-labelled compound in SAMP8 model mice and control mice; format: in vivo; settings: mouse, 31 μCi; for tissue uptake at 5 min: 5 min after injection; for tissue uptake at 15 min: 15 min after injection; for tissue uptake at 25 min: 25 min after injection; for tissue uptake at 35 min: 35 min after injection
# Procedure: (§1) SAMP8 (senescence accelerated mouse prone 8) mice are the most common animal model of AD (Alzheimer's disease), in its brain there are a large number of amyloid deposition plaque. In this example, SAMP8 mice were used as model mice, and the normal mice were used as the control mice. Both the model mice and the control mice were 10 months old. The two mice were injected with 6-borono-2-(4-methylaminophenyl)benzothiazole containing ^11C labeling, and the Micro-PET scan is used to study whether 6-borono-2-(4-methylaminophenyl)benzothiazole and amyloid β-protein have specific binding properties. Model mice and control mice weighing 31.5±0.3 g were selected, 31.0±0.6 μCi of ^11C labelled 6-borono-2-(4-methylaminophenyl)benzothiazole were injected thereto, and Micro-PET of Model INVEON from Siemens were used for scan, where the scanning window was 350-650 KeV.
# (§2) It is well known to those skilled in the art that the major cause of Alzheimer's disease is that the amyloid β-protein deposition plaques accumulate in the cerebral cortex and hippocampus of the brain. In this example, Micro-PET scanned and compared the brains of the model and control mice using PMOD software. And the absorption of radioactive 6-borono-2-(4-methylaminophenyl)benzothiazole in the cerebral cortex and hippocampus of SAMP8 model mice and control mice was determined, to further illustrate that the compound is capable of specifically binding to amyloid β-protein deposition plaques.
# [2] = system: amyloid β-protein deposition plaques; assay: as above; format: in vivo
# Procedure: as §1, §2
# [3] = cerebral cortex, other: injected (kind of injection not stated), SAMP8 model mice, read-out: Cerebral cortex uptake of radiopharmaceuticals, Model mice
# [4] = cerebral cortex, other: injected (kind of injection not stated), normal control mice, read-out: Cerebral cortex uptake of radiopharmaceuticals, Control mice
# [5] = hippocampus, other: injection (kind of injection not stated), SAMP8 model mice, read-out: hippocampus uptake of radiopharmaceuticals, Model mice
# [6] = hippocampus, other: injection (kind of injection not stated), normal control mice, read-out: hippocampus uptake of radiopharmaceuticals, Control mice
structure (smiles),measurement,setting,value
CNc1ccc(-c2nc3ccc(B(O)O)cc3s2)cc1 [6-borono-2-(4-methylaminophenyl)benzothiazole],tissue uptake at 5 min,[1]; [3],3.03 %ID/g
same,tissue uptake at 15 min,[1]; [3],2.88 %ID/g
same,tissue uptake at 25 min,[1]; [3],2.79 %ID/g
same,tissue uptake at 35 min,[1]; [3],2.68 %ID/g
same,tissue uptake at 5 min,[1]; [4],1.61 %ID/g
same,tissue uptake at 15 min,[1]; [4],1.48 %ID/g
same,tissue uptake at 25 min,[1]; [4],1.17 %ID/g
same,tissue uptake at 35 min,[1]; [4],0.99 %ID/g
same,tissue uptake at 5 min,[1]; [5],3.44 %ID/g
same,tissue uptake at 15 min,[1]; [5],3.5 %ID/g
same,tissue uptake at 25 min,[1]; [5],3.45 %ID/g
same,tissue uptake at 35 min,[1]; [5],3.27 %ID/g
same,tissue uptake at 5 min,[1]; [6],1.8 %ID/g
same,tissue uptake at 15 min,[1]; [6],1.49 %ID/g
same,tissue uptake at 25 min,[1]; [6],1.09 %ID/g
same,tissue uptake at 35 min,[1]; [6],1.01 %ID/g
same,Cerebral cortex uptake Ratio (model mice/control mice),[2]; 5 min after injection,1.9
same,hippocampus uptake Ratio (model mice/control mice),[2]; 5 min after injection,1.9
same,Cerebral cortex uptake Ratio (model mice/control mice),[2]; 15 min after injection,1.9
same,hippocampus uptake Ratio (model mice/control mice),[2]; 15 min after injection,2.3
same,Cerebral cortex uptake Ratio (model mice/control mice),[2]; 25 min after injection,2.4
same,hippocampus uptake Ratio (model mice/control mice),[2]; 25 min after injection,3.2
same,"brain radiopharmaceutical absorption in PET image (FIG. 4), SAMP8 model mouse relative to control mice",[2]; 30 min after injection,accumulated a large amount of radiopharmaceuticals
same,Cerebral cortex uptake Ratio (model mice/control mice),[2]; 35 min after injection,2.7
same,hippocampus uptake Ratio (model mice/control mice),[2]; 35 min after injection,3.2
